Experiments:
[1] = Light absorption maxima and molar extinction coefficients; format: physicochemical
Protocol: (§1) Compounds according to the invention were assessed and characterised by their light absorption maxima, and their molar extinction coefficients according to conventional test procedures. Most of the compound were tested for their biological activity according to conventional test procedures in the art. The PC50 represents phototoxic concentration 50%. which is the concentration of compound when exposed to a light dose as described herein, causes a 50% reduction in cancer cell growth vs an untreated control population. The phototoxicity index. PI, is the ratio of the PC50 to the cytotoxic concentration 50%. where the growth is reduced by 50% without a light dose being given.

[2] = tested on: Adherent cells (HeLa RCA. SKOV OVCAR); experiment: Phototoxicity (Light): 3H-thymidine incorporation in adherent cells after irradiation, with dark cytotoxicity for PI; format: cell-based; conditions: for PI (phototoxicity index): ratio of PC50 to cytotoxic concentration 50% (no light); for PC50 (phototoxic concentration 50%) / IC50: with light dose, 50% reduction in cancer cell growth vs untreated control, 24 h incubation with sensitizer; for IC50: read-out: PC50 (phototoxic concentration 50%)
Protocol: The media is removed and the cells washed three times with D-PBS. and then covered with D-PBS (200 μl ) and exposed to light from the same source used in the singlet oxygen assay.
This follows the procedure for phototoxicity except that the cells are never exposed to light. The assay is relative to a non-treated control.
as §1
PC50 is determined by a relatively simple in vitro assay on a cellular level, which is generally indicative of photosensitizing activity.

SMILES | ε (molar extinction coefficient) [1] [M⁻¹ cm⁻¹] | λmax Q ([1]; in water (W)) | PI (phototoxicity index) [2] | PC50 (phototoxic concentration 50%) [2] | IC50 [2] [µM] | λmax Q ([1]; in methanol (M))
Cc1cc2c(cc1C)C1=Nc3c4cc(C)c(C)cc4c4[n]3[Ru][n]3c(c5cc(C)c(C)cc5c3=NC3=NC(=N4)c4cc(C)c(C)cc43)=NC2=N1.O=C(O)c1cncc(C(=O)O)c1.O=C(O)c1cncc(C(=O)O)c1 [Ru(oMe)8 Pc(35PDCA2)] | 63300 | 641 | 1 | Inactive |  | 
Fc1c(F)c(F)c2c(c1F)C1=NC2=Nc2c3c(F)c(F)c(F)c(F)c3c3[n]2[Ru][n]2c(c4c(F)c(F)c(F)c(F)c4c2=NC2=NC(=N3)c3c(F)c(F)c(F)c(F)c32)=N1.O=C(O)c1cccnc1.O=C(O)c1cccnc1 [RuF16 Pc(Nic)2] | 55700 |  |  | Inactive |  | 
O=S(=O)(O)c1ccc[n+]([Ru-2]2([n+]3cccc(S(=O)(=O)O)c3)[n]3c4c5cc6ccccc6cc5c3N=C3N=C(N=c5c6cc7ccccc7cc6c([n]52)=NC2=NC(=N4)c4cc5ccccc5cc42)c2cc4ccccc4cc23)c1.[Na+].[Na+] [RuNc(3PS)2] |  |  |  |  | 0.46 | 
O=S(=O)([O-])c1ccc[n+]([Ru-2]2([n+]3cccc(S(=O)(=O)[O-])c3)[n]3c4c5cc6ccccc6cc5c3N=C3N=C(N=c5c6cc7ccccc7cc6c([n]52)=NC2=NC(=N4)c4cc5ccccc5cc42)c2cc4ccccc4cc23)c1.[Na+].[Na+] [RuNc(3PS)2] | 83000 | 730 | 32.6 |  |  | 
O=C(O)c1cccnc1.O=C(O)c1cccnc1.c1ccc2cc3c(cc2c1)C1=NC3=Nc2c3cc4ccccc4cc3c3[n]2[Ru][n]2c(c4cc5ccccc5cc4c2=NC2=NC(=N3)c3cc4ccccc4cc32)=N1 [RuNc(Nic)2] | 169000 | 762 | 22.2 |  | 0.105 | 
O=S(=O)([O-])c1cccc(P(c2ccccc2)c2ccccc2)c1.O=S(=O)([O-])c1cccc(P(c2ccccc2)c2ccccc2)c1.[K+].[K+].c1ccc2cc3c(cc2c1)C1=NC2=NC(=Nc4c5cc6ccccc6cc5c5[n]4[Ru][n]4c(c6cc7ccccc7cc6c4=N5)=NC3=N1)c1cc3ccccc3cc12 [RuNc(TPPMS)2] | 54000 | 734 | 1.6 |  | 2.7 | 
O=S(=O)([O-])c1cccc(P(c2cccc(S(=O)(=O)[O-])c2)c2cccc(S(=O)(=O)[O-])c2)c1.O=S(=O)([O-])c1cccc(P(c2cccc(S(=O)(=O)[O-])c2)c2cccc(S(=O)(=O)[O-])c2)c1.[Na+].[Na+].[Na+].[Na+].[Na+].[Na+].c1ccc2cc3c(cc2c1)C1=NC2=NC(=Nc4c5cc6ccccc6cc5c5[n]4[Ru][n]4c(c6cc7ccccc7cc6c4=N5)=NC3=N1)c1cc3ccccc3cc12 [RuNc(TPPTS)2] |  | 720 |  |  | > 100 | 
NCCC(=O)[O-].NCCC(=O)[O-].[K+].[K+].c1ccc2cc3c(cc2c1)C1=NC2=NC(=Nc4c5cc6ccccc6cc5c5[n]4[Ru][n]4c(c6cc7ccccc7cc6c4=N5)=NC3=N1)c1cc3ccccc3cc12 [RuNc(β-ALA)2] | 36500 | 730 | 1.51 |  | 0.96 | 
O=S(=O)([O-])c1cccnc1.O=S(=O)([O-])c1cccnc1.[Na+].[Na+].c1ccc2c(c1)C1=NC2=Nc2c3ccccc3c3[n]2[Ru][n]2c(c4ccccc4c2=NC2=NC(=N3)c3ccccc32)=N1 [RuPc(3PS)2] | 736000 | 630 | > 109 |  | 0.929 | 
Nc1ccc(O)c(C(=O)O)c1.Nc1ccc(O)c(C(=O)O)c1.c1ccc2c(c1)C1=NC3=NC(=Nc4c5ccccc5c5[n]4[Ru][n]4c(c6ccccc6c4=N5)=NC2=N1)c1ccccc13 [RuPc(5AS)2] | 66500 |  |  |  | 2 | 
O=C(O)c1ccncc1C(=O)O.O=C(O)c1ccncc1C(=O)O.c1ccc2c(c1)C1=NC2=Nc2c3ccccc3c3[n]2[Ru][n]2c(c4ccccc4c2=NC2=NC(=N3)c3ccccc32)=N1 [RuPc(34PDCA)2] | 58800 | 630 | 47.6 |  | 2.1 | 
O=C(O)c1cncc(C(=O)O)c1.O=C(O)c1cncc(C(=O)O)c1.c1ccc2c(c1)C1=NC2=Nc2c3ccccc3c3[n]2[Ru][n]2c(c4ccccc4c2=NC2=NC(=N3)c3ccccc32)=N1 [RuPc(35PDCA)2] | 48400 | 632 | > 5.6 |  | 18 | 
Nc1cccc(C(=O)O)c1.Nc1cccc(C(=O)O)c1.c1ccc2c(c1)C1=NC3=NC(=Nc4c5ccccc5c5[n]4[Ru][n]4c(c6ccccc6c4=N5)=NC2=N1)c1ccccc13 [RuPc(ABA)2] | 72500 | 638 | 8.8 |  | 3.5 | 
N#Cc1cccc(C(=O)O)c1.N#Cc1cccc(C(=O)O)c1.c1ccc2c(c1)C1=NC3=NC(=Nc4c5ccccc5c5[n]4[Ru][n]4c(c6ccccc6c4=N5)=NC2=N1)c1ccccc13 [RuPc(CBA)2] | 97600 | 650 | 10.2 |  | 0.42 | 
O=C(O)c1cccnc1.O=C(O)c1cccnc1.c1ccc2c(c1)C1=NC2=Nc2c3ccccc3c3[n]2[Ru][n]2c(c4ccccc4c2=NC2=NC(=N3)c3ccccc32)=N1 [RuPc(Nic)2] | 648000 | 630 | > 79 |  | 1.26 | 
O.O.O.O.O=S(=O)([O-])CCc1cc[n+]([Ru-2]2([n+]3ccc(CCS(=O)(=O)[O-])cc3)[n]3c4c5ccccc5c3N=C3N=C(N=c5c6ccccc6c([n]52)=NC2=NC(=N4)c4ccccc42)c2ccccc23)cc1.[K+].[K+] [RuPc(PES)2 (Ex 2), K2 [Ru(Pc)bis(4-pyridineethanesulfonate)]tetrahydrate] | 72500 | 632 | 1 | Inactive |  | 
O=S(=O)([O-])c1cccc(P(c2ccccc2)c2ccccc2)c1.O=S(=O)([O-])c1cccc(P(c2ccccc2)c2ccccc2)c1.[K+].[K+].c1ccc2c(c1)C1=NC3=NC(=Nc4c5ccccc5c5[n]4[Ru][n]4c(c6ccccc6c4=N5)=NC2=N1)c1ccccc13 [RuPc(TPPMS)2] | 90300 | 652 |  |  |  | 
O=S(=O)([O-])c1cccc(P(c2cccc(S(=O)(=O)[O-])c2)c2cccc(S(=O)(=O)[O-])c2)c1.O=S(=O)([O-])c1cccc(P(c2cccc(S(=O)(=O)[O-])c2)c2cccc(S(=O)(=O)[O-])c2)c1.[Na+].[Na+].[Na+].[Na+].[Na+].[Na+].c1ccc2c(c1)C1=NC3=NC(=Nc4c5ccccc5c5[n]4[Ru][n]4c(c6ccccc6c4=N5)=NC2=N1)c1ccccc13 [RuPc(TPPTS)2] | 87400 | 650 | > 15 |  | 11.3 | 
NCCS(=O)(=O)[O-].NCCS(=O)(=O)[O-].O.O.O.O.O.O.[Na+].[Na+].c1ccc2c(c1)C1=NC3=NC(=Nc4c5ccccc5c5[n]4[Ru][n]4c(c6ccccc6c4=N5)=NC2=N1)c1ccccc13 [RuPc(Tau)2 (Ex 3), Na2 [Ru(Pc)bis(taurine)]hexahydrate] | 79800 | 634 | > 1.1 |  | 9 | 623
O=C([O-])c1cccc(P(c2ccccc2)c2ccccc2)c1.[Na+].c1ccc2c(c1)C1=NC2=Nc2c3ccccc3c3[n]2[Ru][n]2c(c4ccccc4c2=NC2=NC(=N3)c3ccccc32)=N1.c1ccncc1 [RuPc(py)(TPPMC)] | 54600 | 644 |  |  |  | 
NCCC(=O)[O-].NCCC(=O)[O-].[K+].[K+].c1ccc2c(c1)C1=NC3=NC(=Nc4c5ccccc5c5[n]4[Ru][n]4c(c6ccccc6c4=N5)=NC2=N1)c1ccccc13 [RuPc(β-ALA)2] | 105000 |  |  |  | 1.9 | 
O=C(O)c1cccnc1.O=C(O)c1cccnc1.c1cnc2c(n1)C1=NC2=Nc2c3nccnc3c3[n]2[Ru][n]2c(c4nccnc4c2=NC2=NC(=N3)c3nccnc32)=N1 [RupyrPc(Nic)2] | 45100 | 625 | 1 | Inactive |  | 
